Reference: publication PMC4557804 (Journal of medicinal chemistry, 2015)
Structures can show the parent of a compound that is named as a salt.

Columns and labels:
SphK2 [1] = target: T1, SphK2 (Homo sapiens, UniProt Q9NRA0); experiment: biochemical; settings: for inhibition at 1 µM: read-out: inhibition at SphK2
T1 sequence (Q9NRA0 1-654): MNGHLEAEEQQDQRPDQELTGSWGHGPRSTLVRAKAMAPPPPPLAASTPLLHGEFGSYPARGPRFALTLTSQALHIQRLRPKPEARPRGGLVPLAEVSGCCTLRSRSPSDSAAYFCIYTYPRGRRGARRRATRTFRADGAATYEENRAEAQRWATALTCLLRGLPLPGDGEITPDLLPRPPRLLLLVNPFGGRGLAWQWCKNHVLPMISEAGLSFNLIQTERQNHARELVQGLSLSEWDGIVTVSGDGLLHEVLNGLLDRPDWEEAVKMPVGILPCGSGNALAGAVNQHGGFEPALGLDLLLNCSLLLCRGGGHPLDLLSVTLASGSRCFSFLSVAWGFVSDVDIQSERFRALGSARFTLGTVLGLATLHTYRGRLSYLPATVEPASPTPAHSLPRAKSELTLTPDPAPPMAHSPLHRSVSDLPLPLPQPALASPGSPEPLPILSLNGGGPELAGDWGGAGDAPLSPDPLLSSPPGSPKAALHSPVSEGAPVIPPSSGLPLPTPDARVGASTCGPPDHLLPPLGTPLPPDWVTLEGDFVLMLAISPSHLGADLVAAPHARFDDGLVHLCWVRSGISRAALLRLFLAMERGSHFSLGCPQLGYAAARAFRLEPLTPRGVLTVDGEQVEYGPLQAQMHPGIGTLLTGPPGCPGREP

SphK1 [2] = target: T2, SphK1 (Homo sapiens, UniProt Q9NYA1); experiment: biochemical; settings: read-out: inhibition at SphK1
SphK2 [3] = target: T1, SphK2; settings: screen at 1 μM
SphK1 [4] = target: T2, SphK1; settings: screen at 1 μM
[5] = cited from earlier work

T2 sequence (Q9NYA1 whole entry, species assumed): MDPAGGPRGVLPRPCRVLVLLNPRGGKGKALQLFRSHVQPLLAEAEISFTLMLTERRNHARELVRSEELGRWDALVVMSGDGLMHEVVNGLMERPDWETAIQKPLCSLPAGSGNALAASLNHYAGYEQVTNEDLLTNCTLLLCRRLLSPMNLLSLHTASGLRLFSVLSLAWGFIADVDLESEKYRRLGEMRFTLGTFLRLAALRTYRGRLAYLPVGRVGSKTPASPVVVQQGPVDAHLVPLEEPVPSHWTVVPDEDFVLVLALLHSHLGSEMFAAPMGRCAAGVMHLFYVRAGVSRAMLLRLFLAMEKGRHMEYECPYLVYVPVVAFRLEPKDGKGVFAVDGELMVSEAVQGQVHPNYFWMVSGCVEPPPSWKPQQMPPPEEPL

| inhibition at 1 µM (SphK2 [1]) | inhibition at 1 µM (SphK1 [2]) | inhibitory activity at SphK2 (SphK2 [3]) | inhibitory activity at SphK1 (SphK1 [4]) | SMILES | other results |
| --- | --- | --- | --- | --- | --- |
| < 20% | < 20% |  |  | CCCCCCCCc1ccc(-c2noc([C@H](C)NC(=N)N)n2)cc1 [Compound 7c, (S)-1-(1-(3-(4-Octylphenyl)-1,2,4-oxadiazol-5-yl)ethyl)-guanidine Hydrochloride] |  |
|  |  | no significant inhibitory effect | no significant inhibitory effect | CCCCCCCCc1ccc(CNC(=O)[C@@H]2CCCN2C(=N)N)cc1.O=C(O)C(F)(F)F [Compound 31, (S)-Amino(2-((4-octylbenzyl)carbamoyl)pyrrolidin-1-yl)-methaniminium 2,2,2-Trifluoroacetate] |  |
|  |  | essentially inactive | essentially inactive | CCCCCCCCc1ccc(-c2noc([C@@H]3CCN(C(=N)N)C3)n2)cc1.Cl [Compound 20b, (R)-Amino(3-(3-(4-octylphenyl)-1,2,4-oxadiazol-5-yl)-pyrrolidin-1-yl)methaniminium Chloride] |  |
|  |  | inactive | inactive | CCCCCCCCc1ccc(-c2noc(CN(C)C(=N)N)n2)cc1.Cl [Compound 7b, 1-Methyl-1-((3-(4-octylphenyl)-1,2,4-oxadiazol-5-yl)methyl)-guanidine Hydrochloride] |  |
| < 20% | < 20% |  |  | CCCCCCCCc1ccc(-c2noc([C@H](CO)NC(=N)N)n2)cc1 [Compound 7e, (S)-Amino((2-hydroxy-1-(3-(4-octylphenyl)-1,2,4-oxadiazol-5-yl)ethyl)amino)methaniminium Chloride] |  |
| < 20% | < 20% |  |  | CCCCCCCCc1ccc(-c2noc([C@@H](NC(=N)N)C(C)C)n2)cc1 [Compound 7d, (S)-1-(2-Methyl-1-(3-(4-octylphenyl)-1,2,4-oxadiazol-5-yl)-propyl)guanidine Hydrochloride] |  |
| < 20% | < 20% |  |  | CCCCCCCCc1ccc(-c2noc(CNC(=N)N)n2)cc1 [Compound 7a, 1-((3-(4-Octylphenyl)-1,2,4-oxadiazol-5-yl)methyl)guanidine Hydrochloride] |  |
|  |  | inactive | inactive | CCCCCCCCCCc1ccc(NC(=O)[C@@H]2CCCN2C(=N)N)cc1.O=C(O)C(F)(F)F [Compound 29a, (S)-Amino(2-((4-decylphenyl)carbamoyl)pyrrolidin-1-yl)-methaniminium 2,2,2-Trifluoroacetate] |  |
|  |  | inactive | inactive | CCCCCCCCCCc1ccc(NC(=O)[C@H]2CCCN2C(=N)N)cc1.O=C(O)C(F)(F)F [Compound 29b, (R)-Amino(2-((4-decylphenyl)carbamoyl)pyrrolidin-1-yl)-methaniminium 2,2,2-Trifluoroacetate] |  |
|  |  |  |  | O=C(NCc1ccncc1)C12CC3CC(C1)CC(c1ccc(Cl)cc1)(C3)C2 [ABC294640] | S1P levels in vivo [5]: decreased |
|  |  | essentially inactive | essentially inactive | CCCCCCCCc1ccc(-c2noc(C3CN(C(=N)N)C3)n2)cc1.Cl [Compound 20a, Amino(3-(3-(4-octylphenyl)-1,2,4-oxadiazol-5-yl)azetidin-1-yl)methaniminium Chloride] |  |
|  |  |  |  | CCCCCCCCc1ccc(-c2noc([C@@H]3CCN3C(=N)N)n2)cc1 [Compound 7j, (S)-2-(3-(4-Octylphenyl)-1,2,4-oxadiazol-5-yl)azetidine-1-carboximidamide Hydrochloride] | Ki (SphK2 [1]): 1 µM |
